{
  "source": "paper PMC9959456",
  "about": "“Multiple-P450 Gene Co-Up-Regulation in the Development of Permethrin Resistance in the House Fly, Musca domestica” (International Journal of Molecular Sciences, 2023)",
  "key": {"CYP4S24": {"molecular_target": "T1, CYP4S24 (Musca domestica, UniProt T1PEC4)", "T1 construct": "full length, co-expressed with house fly CPR (MOI 10:1) by baculovirus in Sf9 cells; microsomes; with NADPH--cytochrome P450 reductase", "T1 sequence (T1PEC4 1-496)": "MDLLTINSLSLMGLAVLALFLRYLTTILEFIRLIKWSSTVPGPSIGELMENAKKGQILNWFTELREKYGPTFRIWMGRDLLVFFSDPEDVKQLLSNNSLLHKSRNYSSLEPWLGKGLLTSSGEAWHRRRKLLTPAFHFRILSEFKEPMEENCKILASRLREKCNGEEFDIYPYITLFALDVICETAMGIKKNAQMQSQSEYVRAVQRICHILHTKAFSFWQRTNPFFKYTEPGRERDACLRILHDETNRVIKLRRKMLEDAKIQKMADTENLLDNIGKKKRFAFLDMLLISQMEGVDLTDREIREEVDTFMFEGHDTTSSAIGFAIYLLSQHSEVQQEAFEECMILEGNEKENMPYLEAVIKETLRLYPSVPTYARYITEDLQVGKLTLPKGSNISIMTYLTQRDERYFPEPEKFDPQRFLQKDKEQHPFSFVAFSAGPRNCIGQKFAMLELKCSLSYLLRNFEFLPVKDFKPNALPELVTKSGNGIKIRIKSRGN", "T1 sequence (Q07994 1-671 partner)": "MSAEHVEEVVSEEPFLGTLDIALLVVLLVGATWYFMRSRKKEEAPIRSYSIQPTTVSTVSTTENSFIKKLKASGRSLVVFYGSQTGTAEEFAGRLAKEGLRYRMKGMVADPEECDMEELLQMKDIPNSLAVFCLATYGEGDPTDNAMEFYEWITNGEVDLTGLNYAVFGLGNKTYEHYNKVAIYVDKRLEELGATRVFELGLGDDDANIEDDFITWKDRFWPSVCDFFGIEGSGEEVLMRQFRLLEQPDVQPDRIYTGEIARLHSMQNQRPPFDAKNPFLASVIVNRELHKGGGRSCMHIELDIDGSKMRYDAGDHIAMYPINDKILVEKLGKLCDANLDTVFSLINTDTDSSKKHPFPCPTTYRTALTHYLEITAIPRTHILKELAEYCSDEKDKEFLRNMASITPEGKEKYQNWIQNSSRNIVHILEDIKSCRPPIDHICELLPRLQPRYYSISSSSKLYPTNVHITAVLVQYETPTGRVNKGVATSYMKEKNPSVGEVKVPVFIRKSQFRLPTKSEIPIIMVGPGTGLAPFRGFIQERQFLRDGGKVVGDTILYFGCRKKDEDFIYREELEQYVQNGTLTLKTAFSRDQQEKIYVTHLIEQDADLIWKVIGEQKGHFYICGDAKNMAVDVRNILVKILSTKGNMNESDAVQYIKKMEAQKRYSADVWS", "assay": "HPLC substrate depletion, P450/CPR Sf9 microsomes", "format": "biochemical", "settings": "0.2 µM P450, NADPH-regenerating system, 0.25 mM MgCl2, pH 7.4, 30 °C, 120 min"}, "CYP6A36": {"molecular_target": "T2, CYP6A36 (Musca domestica, UniProt Q06S82)", "T2 construct": "full length, co-expressed with house fly CPR (MOI 10:1) by baculovirus in Sf9 cells; microsomes; with NADPH--cytochrome P450 reductase", "T2 sequence (Q06S82 1-507)": "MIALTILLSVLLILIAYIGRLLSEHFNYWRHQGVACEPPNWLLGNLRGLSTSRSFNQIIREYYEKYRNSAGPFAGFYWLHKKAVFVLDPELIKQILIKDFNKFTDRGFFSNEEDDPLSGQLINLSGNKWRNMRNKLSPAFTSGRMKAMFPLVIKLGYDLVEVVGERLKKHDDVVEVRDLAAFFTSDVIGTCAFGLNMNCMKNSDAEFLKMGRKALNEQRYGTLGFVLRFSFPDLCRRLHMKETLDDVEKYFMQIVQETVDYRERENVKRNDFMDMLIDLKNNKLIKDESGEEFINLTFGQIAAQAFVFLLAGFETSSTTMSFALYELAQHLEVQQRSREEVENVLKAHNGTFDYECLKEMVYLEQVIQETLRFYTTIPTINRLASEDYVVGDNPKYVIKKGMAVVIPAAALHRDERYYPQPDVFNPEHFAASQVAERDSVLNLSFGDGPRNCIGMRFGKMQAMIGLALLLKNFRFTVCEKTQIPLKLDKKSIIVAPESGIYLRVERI", "T2 sequence (Q07994 1-671 partner)": "T1 sequence (Q07994 1-671 partner)", "assay": "HPLC substrate depletion, P450/CPR Sf9 microsomes", "format": "biochemical", "settings": "20 µM cis/trans permethrin mixture, 0.2 µM P450, NADPH-regenerating system, 0.25 mM MgCl2, pH 7.4, 30 °C, 120 min"}},
  "data": [
    {"smiles": "OCc1cccc(Oc2ccccc2)c1", "note": "[PBalc]", "values": [
      {"measurement": "HPLC substrate depletion, P450/CPR Sf9 microsomes", "setting": "CYP4S24; 20 µM PBalc", "result": "CYP4S24 exhibiting the highest ability to metabolize both PBalc and PBald"}
    ]},
    {"smiles": "O=Cc1cccc(Oc2ccccc2)c1", "note": "[PBald]", "values": [
      {"measurement": "HPLC substrate depletion, P450/CPR Sf9 microsomes", "setting": "CYP4S24; 20 µM PBald", "result": "CYP4S24 exhibiting the highest ability to metabolize both PBalc and PBald"}
    ]},
    {"smiles": "CC1(C)C(C=C(Cl)Cl)C1C(=O)OCc1cccc(Oc2ccccc2)c1", "note": "(stereo not drawn) [trans-permethrin]", "values": [
      {"measurement": "HPLC substrate depletion, P450/CPR Sf9 microsomes", "setting": "CYP6A36", "result": "CYP6A36 showed the highest activity toward both trans- and cis-permethrin"}
    ]}
  ]
}
